From ChEMBL document CHEMBL1201862, “PubChem BioAssay data set” (2004)
Active and inactive are the calls of the source.

Columns and labels:
[1] = biological target: NAD-dependent protein deacylase sirtuin-5, mitochondrial (Homo sapiens, UniProt Q9NXA8); assay: SIRT5 desuccinylase inhibitors, dose response, biochemical, fluorescence imaging, cherry-pick, set 5 (AID 720591);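 note: desuccinylation of succinyl peptide AMC substrate read as fluorescence after trypsin release; potency of inhibitors that lower fluorescence and may act on trypsin instead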
[2] = biological target: Induced myeloid leukemia cell differentiation protein Mcl-1 (Homo sapiens, UniProt Q07820); format: functional
[3] = biological target: Eukaryotic translation initiation factor 4E (Mus musculus, UniProt P63073); assay: eIF4E–eIF4G protein interaction inhibitors, dose response, biochemical, TR-FRET (AID 855); format: functional;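 note: potency for disrupting eIF4E binding to eIF4GI seen as loss of FRET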
[4] = ADAM10 inhibitors, peptide cleavage, dose response, biochemical, QFRET (AID 743254);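 note: ADAM10 enzyme with the DM2 quenched FRET peptide as substrate; EDANS fluorescence gain as the protease cuts the substrate; inhibitor potency against ADAM10 proteolytic activity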
[5] = biological target: Disintegrin and metalloproteinase domain-containing protein 17 (Homo sapiens, UniProt P78536); assay: ADAM17 protease inhibitors, dose response, counter-screen for ADAM10 exosite inhibitor project, biochemical, quenched FRET substrate (AID 743253)
cells = conditions: HEK293
[6] = biological target: T1, DNA repair protein RAD52 homolog (Homo sapiens, UniProt P43351); format: functional, biochemical
T1 sequence (P43351 whole entry): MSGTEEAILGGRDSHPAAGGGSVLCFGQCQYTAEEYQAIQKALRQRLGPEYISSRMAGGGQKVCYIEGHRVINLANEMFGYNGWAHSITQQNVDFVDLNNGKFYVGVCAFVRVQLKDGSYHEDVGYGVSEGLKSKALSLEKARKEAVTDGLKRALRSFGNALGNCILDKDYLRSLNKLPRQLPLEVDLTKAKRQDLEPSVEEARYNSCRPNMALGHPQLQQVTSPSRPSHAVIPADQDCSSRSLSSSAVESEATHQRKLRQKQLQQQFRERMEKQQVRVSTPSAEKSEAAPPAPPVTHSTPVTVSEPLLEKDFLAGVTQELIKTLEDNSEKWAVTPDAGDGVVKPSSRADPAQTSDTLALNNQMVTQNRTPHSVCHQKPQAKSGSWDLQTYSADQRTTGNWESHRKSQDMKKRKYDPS

[7] = biological target: COUP transcription factor 2 (Homo sapiens, UniProt P24468); assay: Luminescence-based cell-based high throughput dose response assay to identify inhibitors of COUP-TFII (NR2F2).; format: functional;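 note: HEK293 cells transiently cotransfected with COUP-TFII expression vector and reporter; luciferase reporter luminescence driven by COUP-TFII from the pX2-168 reporter plasmid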
Large T antigen = Large T antigen (Simian virus 40, UniProt P03070); format: functional, Betapolyomavirus macacae;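 note: Confirmatory-stage PubChem screen for compounds that inhibit SV40 T antigen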
[8] = biological target: T2, Intestinal-type alkaline phosphatase (Homo sapiens, UniProt P09923); assay: activation of human intestinal alkaline phosphatase – biochemical, dose response (AID 488873); format: functional
[9] = biological target: Intestinal-type alkaline phosphatase (Mus musculus, UniProt P24822); assay: PubChem AID 488785; format: functional
[10] = biological target: T3, Alkaline phosphatase, tissue-nonspecific isozyme (Homo sapiens, UniProt P05186); assay: TNAP enzyme inhibition by screening hits, dose response, selectivity assay for mouse IAP inhibitor project, biochemical, human TNAP, uHTS hits (AID 488906); format: functional
T3 sequence (P05186 whole entry): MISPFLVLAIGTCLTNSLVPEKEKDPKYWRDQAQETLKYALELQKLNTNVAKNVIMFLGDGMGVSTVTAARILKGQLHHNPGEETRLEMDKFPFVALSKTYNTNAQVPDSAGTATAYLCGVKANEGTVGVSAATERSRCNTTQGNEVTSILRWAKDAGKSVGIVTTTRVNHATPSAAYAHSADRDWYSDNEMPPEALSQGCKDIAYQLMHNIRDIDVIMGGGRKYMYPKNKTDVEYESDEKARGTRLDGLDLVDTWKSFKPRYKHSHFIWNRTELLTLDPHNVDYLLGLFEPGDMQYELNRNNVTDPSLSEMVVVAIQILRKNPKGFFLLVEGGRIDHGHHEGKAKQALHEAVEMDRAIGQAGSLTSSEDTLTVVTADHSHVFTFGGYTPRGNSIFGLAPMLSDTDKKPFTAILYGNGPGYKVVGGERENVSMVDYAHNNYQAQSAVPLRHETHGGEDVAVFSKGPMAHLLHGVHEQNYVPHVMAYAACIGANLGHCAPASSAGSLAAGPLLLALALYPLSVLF

[11] = biological target: Ras and Rab interactor 1/Tyrosine-protein kinase ABL1 (Homo sapiens, UniProt P00519+Q13671); format: functional;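 note: biochemical TR-FRET dose-response test measuring inhibition of binding between Rin1 and Abl proteins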
Caspase-6 = biological target: T4, Caspase-6 (Homo sapiens, UniProt P55212); assay: human caspase-6 inhibitors, dose response, biochemical, VEID-R110 fluorescence, cherry-pick (AID 720632)
T4 sequence (P55212 whole entry): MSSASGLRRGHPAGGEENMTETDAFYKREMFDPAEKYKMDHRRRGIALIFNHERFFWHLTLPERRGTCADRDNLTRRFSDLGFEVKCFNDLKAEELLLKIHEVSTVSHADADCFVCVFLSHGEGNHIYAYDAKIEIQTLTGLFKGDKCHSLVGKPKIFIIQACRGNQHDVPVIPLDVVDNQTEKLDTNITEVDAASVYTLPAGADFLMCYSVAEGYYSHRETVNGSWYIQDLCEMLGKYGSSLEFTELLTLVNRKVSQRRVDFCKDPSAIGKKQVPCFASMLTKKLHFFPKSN

Caspase-7 = Caspase-7 (Homo sapiens, UniProt P55210); assay: human caspase-7 inhibitors, dose response, selectivity assay for caspase-6 inhibitor project, biochemical, DEVD-R110 fluorescence, cherry-pick (AID 743295)
Caspase-3 = biological target: T5, Caspase-3 (Homo sapiens, UniProt P42574); assay: caspase-3 enzyme inhibitors, selectivity check, dose response, selectivity assay for caspase-6 allosteric inhibitor project, biochemical, fluorescence, cherry-picked samples (AID 743291)
T5 sequence (P42574 whole entry): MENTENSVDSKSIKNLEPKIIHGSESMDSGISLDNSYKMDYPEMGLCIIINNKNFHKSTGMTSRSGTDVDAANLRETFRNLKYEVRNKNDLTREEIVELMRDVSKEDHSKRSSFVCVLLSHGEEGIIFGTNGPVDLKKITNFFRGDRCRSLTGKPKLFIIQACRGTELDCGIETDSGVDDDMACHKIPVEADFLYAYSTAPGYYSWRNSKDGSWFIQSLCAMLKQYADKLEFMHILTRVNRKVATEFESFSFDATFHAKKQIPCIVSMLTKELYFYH

[12] = biological target: T2, Intestinal-type alkaline phosphatase; assay: inhibition of human intestinal alkaline phosphatase – biochemical, dose response (AID 488876); format: functional
[13] = biological target: T6, Small ubiquitin-related modifier 2 (Homo sapiens, UniProt P61956); assay: SUMO2–SIM peptide binding inhibitors, dose response, selectivity assay for SUMO1 interaction inhibitor project, biochemical, fluorescence polarization, uHTS hits (AID 624385); format: functional; conditions: read-out: IC50_Mean
[14] = biological target: T7, Small ubiquitin-related modifier 1 (Homo sapiens, UniProt P63165); assay: inhibitors of SUMO1 peptide binding, dose response, biochemical, fluorescence polarization, uHTS hits (AID 624382); format: functional; conditions: read-out: IC50_Mean
[15] = biological target: T6, Small ubiquitin-related modifier 2; assay: inhibitors of SUMO2 protein-protein interaction, dose response, selectivity assay for SUMO1 interaction inhibitor project, biochemical, FRET, human SUMO2, uHTS hits (AID 624384); format: functional; conditions: read-out: IC50_Mean
[16] = biological target: T7, Small ubiquitin-related modifier 1; assay: inhibitors of SUMO1 partner interactions, dose response, biochemical, FRET (AID 624383); format: functional; conditions: read-out: IC50_Mean
[17] = biological target: T8, Rac GTPase-activating protein 1 (Homo sapiens, UniProt Q9H0H5); assay: MgcRacGAP GTPase-activating activity inhibitors, confirmation, biochemical, ADP Hunter fluorescence, primary and confirmatory (AID 624330); format: functional
T8 sequence (Q9H0H5 whole entry): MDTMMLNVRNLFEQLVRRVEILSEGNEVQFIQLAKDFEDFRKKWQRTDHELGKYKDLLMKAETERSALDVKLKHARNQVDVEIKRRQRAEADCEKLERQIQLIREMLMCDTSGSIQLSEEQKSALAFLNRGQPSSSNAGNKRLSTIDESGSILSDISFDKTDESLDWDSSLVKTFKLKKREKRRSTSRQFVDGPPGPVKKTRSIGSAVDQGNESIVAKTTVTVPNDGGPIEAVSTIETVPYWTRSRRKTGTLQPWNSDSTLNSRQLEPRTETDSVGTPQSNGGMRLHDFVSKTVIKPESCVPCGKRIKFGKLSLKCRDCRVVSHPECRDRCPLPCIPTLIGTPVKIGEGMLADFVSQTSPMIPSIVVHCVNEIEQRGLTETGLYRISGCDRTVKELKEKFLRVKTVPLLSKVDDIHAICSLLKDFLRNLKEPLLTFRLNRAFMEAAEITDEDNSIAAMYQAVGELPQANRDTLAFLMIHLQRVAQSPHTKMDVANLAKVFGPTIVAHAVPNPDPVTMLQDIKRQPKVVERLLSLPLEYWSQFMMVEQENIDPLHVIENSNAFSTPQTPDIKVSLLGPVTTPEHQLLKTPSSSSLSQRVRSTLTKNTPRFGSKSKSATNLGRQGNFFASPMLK

[18] = biological target: T9, Histone-lysine N-methyltransferase NSD2 (Homo sapiens, UniProt O96028); format: biochemical
T9 sequence (O96028 whole entry): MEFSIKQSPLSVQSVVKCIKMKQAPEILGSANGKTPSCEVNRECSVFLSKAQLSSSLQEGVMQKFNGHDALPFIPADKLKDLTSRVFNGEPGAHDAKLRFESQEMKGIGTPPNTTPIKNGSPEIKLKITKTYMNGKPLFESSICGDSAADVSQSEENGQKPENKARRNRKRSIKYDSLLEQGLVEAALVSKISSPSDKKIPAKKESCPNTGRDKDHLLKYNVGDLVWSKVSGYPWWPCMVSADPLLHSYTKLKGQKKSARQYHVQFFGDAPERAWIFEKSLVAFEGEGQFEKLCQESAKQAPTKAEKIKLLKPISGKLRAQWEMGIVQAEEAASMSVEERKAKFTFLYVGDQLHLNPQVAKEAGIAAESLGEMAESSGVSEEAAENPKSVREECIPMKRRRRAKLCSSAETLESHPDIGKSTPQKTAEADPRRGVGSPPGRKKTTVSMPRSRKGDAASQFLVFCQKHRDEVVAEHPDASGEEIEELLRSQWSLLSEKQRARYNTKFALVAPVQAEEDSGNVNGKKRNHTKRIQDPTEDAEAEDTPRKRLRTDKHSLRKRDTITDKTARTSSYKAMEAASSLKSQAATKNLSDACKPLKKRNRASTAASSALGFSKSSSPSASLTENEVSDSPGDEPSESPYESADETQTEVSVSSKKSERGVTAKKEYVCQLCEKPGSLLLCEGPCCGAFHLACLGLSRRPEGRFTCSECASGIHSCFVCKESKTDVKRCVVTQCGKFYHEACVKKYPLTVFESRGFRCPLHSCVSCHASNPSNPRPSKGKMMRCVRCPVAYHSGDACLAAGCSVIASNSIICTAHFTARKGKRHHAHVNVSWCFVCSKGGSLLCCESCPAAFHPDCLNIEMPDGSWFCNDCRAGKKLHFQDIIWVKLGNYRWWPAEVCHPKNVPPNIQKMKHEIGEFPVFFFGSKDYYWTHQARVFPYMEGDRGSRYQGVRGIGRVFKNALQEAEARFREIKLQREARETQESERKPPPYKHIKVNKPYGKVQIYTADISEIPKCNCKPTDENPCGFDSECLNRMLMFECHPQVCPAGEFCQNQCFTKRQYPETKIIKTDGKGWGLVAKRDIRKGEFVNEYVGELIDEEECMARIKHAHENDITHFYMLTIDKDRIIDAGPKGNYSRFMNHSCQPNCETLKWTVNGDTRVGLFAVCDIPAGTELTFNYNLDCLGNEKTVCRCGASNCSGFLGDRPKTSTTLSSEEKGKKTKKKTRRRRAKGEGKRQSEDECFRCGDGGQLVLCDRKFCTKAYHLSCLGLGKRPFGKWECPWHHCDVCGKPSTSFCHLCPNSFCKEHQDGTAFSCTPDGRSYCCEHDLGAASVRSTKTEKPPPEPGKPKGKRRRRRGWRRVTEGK

Caspase-8 = Caspase-8 (Homo sapiens, UniProt Q14790); assay: caspase-8 inhibition counter-screen, dose response, selectivity assay for caspase-6 inhibitor project, biochemical, Z-IETD-R110 fluorescence, cherry-picked samples (AID 743294)
[19] = HepG2 cell cytotoxicity, dose response, cytotoxicity control, ATP luminescence, cherry-pick, set 6 (AID 1053125); format: functional, cell-based

T6 sequence (P61956 whole entry): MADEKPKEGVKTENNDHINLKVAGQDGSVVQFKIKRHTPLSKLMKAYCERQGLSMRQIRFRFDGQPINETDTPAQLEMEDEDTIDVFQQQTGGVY
T2 sequence (P09923 whole entry): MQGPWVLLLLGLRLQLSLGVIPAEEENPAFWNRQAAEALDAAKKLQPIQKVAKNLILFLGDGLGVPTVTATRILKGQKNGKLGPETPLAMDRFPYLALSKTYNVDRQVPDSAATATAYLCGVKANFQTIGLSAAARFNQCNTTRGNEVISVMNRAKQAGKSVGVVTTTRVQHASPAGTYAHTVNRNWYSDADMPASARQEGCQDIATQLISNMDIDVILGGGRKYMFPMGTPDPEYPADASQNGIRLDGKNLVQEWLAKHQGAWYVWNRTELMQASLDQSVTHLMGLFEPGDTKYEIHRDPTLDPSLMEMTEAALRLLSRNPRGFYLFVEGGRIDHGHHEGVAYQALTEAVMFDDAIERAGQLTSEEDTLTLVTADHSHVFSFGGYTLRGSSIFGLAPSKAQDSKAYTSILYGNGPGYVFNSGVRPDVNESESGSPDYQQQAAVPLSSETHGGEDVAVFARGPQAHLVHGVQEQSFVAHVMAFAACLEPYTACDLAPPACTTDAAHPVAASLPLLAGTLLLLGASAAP
Intestinal-type alkaline phosphatase (Mus musculus, UniProt P24822), sequence (P24822 whole entry): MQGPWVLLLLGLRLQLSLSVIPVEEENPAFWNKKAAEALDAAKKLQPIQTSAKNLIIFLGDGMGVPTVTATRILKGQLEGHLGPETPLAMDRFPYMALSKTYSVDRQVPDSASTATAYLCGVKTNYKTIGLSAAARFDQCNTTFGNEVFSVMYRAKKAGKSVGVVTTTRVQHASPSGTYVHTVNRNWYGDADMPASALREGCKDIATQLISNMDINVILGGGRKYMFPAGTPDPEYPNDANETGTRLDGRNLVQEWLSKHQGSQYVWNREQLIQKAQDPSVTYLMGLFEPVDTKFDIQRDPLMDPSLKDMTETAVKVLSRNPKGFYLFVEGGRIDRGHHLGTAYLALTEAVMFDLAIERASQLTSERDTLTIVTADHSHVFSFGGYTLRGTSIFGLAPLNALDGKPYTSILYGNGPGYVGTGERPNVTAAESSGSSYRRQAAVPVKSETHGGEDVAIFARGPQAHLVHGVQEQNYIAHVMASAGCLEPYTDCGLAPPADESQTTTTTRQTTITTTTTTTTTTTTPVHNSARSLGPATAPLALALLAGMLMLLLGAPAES
Induced myeloid leukemia cell differentiation protein Mcl-1, sequence (Q07820 whole entry): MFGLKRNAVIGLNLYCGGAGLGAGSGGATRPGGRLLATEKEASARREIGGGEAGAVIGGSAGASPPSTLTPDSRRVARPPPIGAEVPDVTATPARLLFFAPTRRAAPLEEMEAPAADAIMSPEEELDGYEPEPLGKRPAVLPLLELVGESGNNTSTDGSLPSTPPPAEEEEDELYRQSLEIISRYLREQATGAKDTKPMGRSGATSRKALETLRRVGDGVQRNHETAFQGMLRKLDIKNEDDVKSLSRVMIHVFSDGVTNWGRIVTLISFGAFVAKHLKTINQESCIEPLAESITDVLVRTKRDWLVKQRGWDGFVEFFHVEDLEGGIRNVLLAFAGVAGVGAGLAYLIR
Caspase-7, sequence (P55210 24-198 limits assumed): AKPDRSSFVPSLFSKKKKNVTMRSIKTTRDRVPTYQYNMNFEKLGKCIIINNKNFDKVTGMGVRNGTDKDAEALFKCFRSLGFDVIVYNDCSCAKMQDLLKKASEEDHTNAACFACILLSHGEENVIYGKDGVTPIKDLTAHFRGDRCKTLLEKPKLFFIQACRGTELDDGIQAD
Caspase-7, sequence (P55210 207-303 limits assumed): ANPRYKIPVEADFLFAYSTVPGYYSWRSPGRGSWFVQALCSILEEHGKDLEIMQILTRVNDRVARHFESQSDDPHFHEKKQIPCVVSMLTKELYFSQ
T7 sequence (P63165 whole entry): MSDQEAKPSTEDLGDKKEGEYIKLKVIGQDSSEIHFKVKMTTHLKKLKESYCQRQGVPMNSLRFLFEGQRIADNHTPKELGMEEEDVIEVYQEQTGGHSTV
Caspase-8, sequence (Q14790 217-374 limits assumed): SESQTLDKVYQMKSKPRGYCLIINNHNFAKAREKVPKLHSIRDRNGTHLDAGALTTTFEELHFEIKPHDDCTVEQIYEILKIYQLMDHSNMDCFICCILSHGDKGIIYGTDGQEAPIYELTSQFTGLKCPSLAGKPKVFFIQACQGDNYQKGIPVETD
Caspase-8, sequence (Q14790 385-479 limits assumed): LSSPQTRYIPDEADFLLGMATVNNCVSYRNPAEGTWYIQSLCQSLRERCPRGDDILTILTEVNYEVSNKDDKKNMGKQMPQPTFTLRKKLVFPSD
Disintegrin and metalloproteinase domain-containing protein 17, sequence (P78536 whole entry, the tested form may be a part): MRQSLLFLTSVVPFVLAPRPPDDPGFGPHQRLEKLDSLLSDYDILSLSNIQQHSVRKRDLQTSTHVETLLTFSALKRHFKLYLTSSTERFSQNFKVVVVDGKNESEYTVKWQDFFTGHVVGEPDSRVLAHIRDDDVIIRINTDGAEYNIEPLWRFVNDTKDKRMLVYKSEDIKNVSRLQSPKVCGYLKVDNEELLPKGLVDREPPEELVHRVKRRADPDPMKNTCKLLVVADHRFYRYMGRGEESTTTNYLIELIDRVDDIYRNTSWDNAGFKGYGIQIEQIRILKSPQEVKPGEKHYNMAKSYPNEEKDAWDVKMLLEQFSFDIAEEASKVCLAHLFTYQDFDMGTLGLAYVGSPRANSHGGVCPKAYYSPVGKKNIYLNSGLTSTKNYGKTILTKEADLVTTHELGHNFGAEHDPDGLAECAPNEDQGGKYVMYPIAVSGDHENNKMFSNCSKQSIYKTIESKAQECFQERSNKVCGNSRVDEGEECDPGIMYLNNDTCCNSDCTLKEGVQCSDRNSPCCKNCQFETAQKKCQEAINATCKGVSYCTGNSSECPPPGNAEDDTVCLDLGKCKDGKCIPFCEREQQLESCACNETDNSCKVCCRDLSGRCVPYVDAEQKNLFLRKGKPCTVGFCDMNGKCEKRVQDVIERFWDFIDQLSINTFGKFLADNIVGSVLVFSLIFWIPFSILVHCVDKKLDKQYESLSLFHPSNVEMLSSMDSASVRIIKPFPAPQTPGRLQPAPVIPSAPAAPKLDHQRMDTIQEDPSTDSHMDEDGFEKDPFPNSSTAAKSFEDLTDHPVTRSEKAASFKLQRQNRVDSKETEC
Ras and Rab interactor 1/Tyrosine-protein kinase ABL1, sequence (P00519 whole entry): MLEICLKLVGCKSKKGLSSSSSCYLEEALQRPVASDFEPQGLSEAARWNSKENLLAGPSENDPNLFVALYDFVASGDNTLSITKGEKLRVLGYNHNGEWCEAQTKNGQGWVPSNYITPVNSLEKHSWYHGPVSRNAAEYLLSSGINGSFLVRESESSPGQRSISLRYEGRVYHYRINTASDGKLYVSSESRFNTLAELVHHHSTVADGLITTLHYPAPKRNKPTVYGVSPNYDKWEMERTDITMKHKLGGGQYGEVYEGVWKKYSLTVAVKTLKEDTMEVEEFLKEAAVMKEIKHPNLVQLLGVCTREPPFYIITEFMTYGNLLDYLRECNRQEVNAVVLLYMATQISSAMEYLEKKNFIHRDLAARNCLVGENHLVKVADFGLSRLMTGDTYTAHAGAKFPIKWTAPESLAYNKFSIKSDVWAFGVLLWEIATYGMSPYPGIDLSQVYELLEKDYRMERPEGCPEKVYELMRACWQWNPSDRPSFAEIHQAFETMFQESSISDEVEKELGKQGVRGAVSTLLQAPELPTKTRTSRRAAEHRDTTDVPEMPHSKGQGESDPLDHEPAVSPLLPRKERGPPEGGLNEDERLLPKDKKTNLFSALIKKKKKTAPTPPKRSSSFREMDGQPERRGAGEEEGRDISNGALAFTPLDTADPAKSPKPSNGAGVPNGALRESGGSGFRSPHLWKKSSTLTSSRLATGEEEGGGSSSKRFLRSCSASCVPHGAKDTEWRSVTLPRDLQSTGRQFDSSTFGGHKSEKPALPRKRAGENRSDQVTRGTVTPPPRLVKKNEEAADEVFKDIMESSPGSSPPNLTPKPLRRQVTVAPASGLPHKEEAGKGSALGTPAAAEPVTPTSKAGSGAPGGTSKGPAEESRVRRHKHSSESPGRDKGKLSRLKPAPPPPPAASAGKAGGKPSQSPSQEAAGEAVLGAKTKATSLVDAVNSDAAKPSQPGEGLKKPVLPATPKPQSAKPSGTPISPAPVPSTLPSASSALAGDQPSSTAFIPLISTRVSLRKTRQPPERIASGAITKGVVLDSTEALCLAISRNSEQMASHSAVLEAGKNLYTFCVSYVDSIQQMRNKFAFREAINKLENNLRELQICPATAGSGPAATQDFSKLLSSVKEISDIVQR
Ras and Rab interactor 1/Tyrosine-protein kinase ABL1, sequence (Q13671 whole entry): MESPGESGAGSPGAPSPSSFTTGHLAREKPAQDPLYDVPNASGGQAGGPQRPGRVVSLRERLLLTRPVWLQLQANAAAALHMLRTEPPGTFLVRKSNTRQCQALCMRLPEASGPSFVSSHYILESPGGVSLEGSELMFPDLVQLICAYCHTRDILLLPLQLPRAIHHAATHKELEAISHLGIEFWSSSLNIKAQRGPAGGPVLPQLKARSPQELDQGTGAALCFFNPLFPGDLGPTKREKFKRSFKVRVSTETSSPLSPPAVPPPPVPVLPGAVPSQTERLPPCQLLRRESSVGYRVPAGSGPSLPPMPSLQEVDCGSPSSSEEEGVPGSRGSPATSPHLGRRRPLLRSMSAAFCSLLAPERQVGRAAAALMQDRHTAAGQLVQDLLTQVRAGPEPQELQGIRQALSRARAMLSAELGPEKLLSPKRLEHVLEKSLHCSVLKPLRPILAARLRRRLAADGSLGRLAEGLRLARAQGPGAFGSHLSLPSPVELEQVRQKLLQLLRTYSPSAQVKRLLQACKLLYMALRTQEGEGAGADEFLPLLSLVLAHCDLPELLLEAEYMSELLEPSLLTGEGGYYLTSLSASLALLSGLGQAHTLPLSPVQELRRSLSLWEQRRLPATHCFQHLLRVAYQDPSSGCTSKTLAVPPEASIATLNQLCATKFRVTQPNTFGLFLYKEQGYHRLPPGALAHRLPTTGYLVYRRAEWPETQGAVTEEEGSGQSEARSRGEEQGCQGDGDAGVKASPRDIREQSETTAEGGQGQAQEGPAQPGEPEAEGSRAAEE

## O=C(Cn1nc(-c2ccc(Cl)cc2)ccc1=O)NCC1COCCO1 (stereo not given)
[1]
  AC50: > 30 µM (inactive)

## Oc1cc2c(cc1C(c1ccc(Cl)c(Cl)c1)N1CCCC1)OCO2 (stereo not given)
[2]
  IC50: 4.76 µM (not active)
[3]
  IC50: 50 µM (inactive)
[4]
  IC50: 4.72 µM (active)
[5]
  IC50: 20 µM (inactive)

## C1CCNCC1.N#CC1=C(N)Oc2cc(O)ccc2C1c1ccc2c(c1)OCO2 (stereo not given)
cells
  AC50: > 52 µM (inactive)

## NC(S)=NN=C1c2cc(OCCN3CCOCC3)ccc2-c2ccc(OCCN3CCOCC3)cc21
[6]
  AC50: 1.07 µM (active)
[7]
  IC50: 5.24 µM (active)

## O=C(CCO)c1ccc(O)cc1
Large T antigen
  IC50: 28.8 µM (active)
[2]
  IC50: 5.16 µM (active)
[8]
  EC50: 11.3 µM (active)
[9]
  IC50: > 100 µM (inactive)
[10]
  IC50: > 100 µM (inactive)
[11]
  IC50: 11.9 µM (inactive)
Caspase-6
  AC50: 1.32 µM (active)
Caspase-7
  AC50: 9.65 µM (active)
Caspase-3
  AC50: 31.7 µM (active)

## O=C(COC(=O)c1ccccc1)Nc1ncc([N+](=O)[O-])s1
[9]
  IC50: < 0.195 µM (active)
[10]
  IC50: 1.06 µM (active)
[12]
  IC50: 80.6 µM (active)
[13]
  IC50: 14.7 µM (active)
[14]
  IC50: 9.39 µM (active)
[15]
  IC50: > 66 µM (inactive)
[16]
  IC50: 51.7 µM (inactive)
[17]
  IC50: 50.2 µM (active)
Caspase-6
  AC50: 0.951 µM (active)
[18]
  AC50: 2.74 µM (active)
Caspase-7
  AC50: 16.3 µM (active)
Caspase-8
  AC50: 61.3 µM (active)

## CCOC(=O)c1cc2c(=O)n3ccccc3nc2n(C(C)C)/c1=N/C(=O)c1ccco1
[19]
  AC50: > 52 µM (inactive)
